# Experimental data from article PMC8185074, “Anchor extension: a structure-guided approach to design cyclic peptides targeting enzyme active sites” (Nature Communications, 2021).
# Peptide text beside a SMILES is read from it.
# Assays:
# [1] = target: T1, HDAC2 (Homo sapiens, UniProt Q92769); assay: HDAC2 inhibition, full IC50 measurement (Reaction Biology; fluorogenic p53 peptide RHKK(Ac)AMC); type: biochemical
# T1 construct: purchased Reaction Biology Corporation (assay run by the CRO)
# Experimental: (§1) The assay was performed using 50 μM fluorogenic peptide from p53 residues 379-382 [RHKK(Ac)AMC] in a base reaction buffer of 50 mM Tris-HCl at pH 8.0, 137 mM NaCl, 2.7 mM KCl, 1 mM MgCl2, and freshly added 1 mg/ml BSA and 1% DMSO. Peptides were first dissolved in DMSO and then added to the reaction mixture with the enzyme using acoustic technique, enough to reach the desired concentration for that assay point. Peptide concentrations were calculated based on mass of lyophilized peptide and its molecular weight. The substrate was then added and incubated for 1 hour at 30 °C in a sealed container. After the incubation, developer was added to stop the reaction and develop color. Kinetic measurements were then performed for 20 min with Envision with 5 min intervals (Ex/Em = 360/460 nm). The endpoint after plateau was taken for IC50 measurement.
# (§2) In cases where duplicate measures are used, average data is reported in the main text or Supplementary Tables.
# [2] = target: T2, HDAC6 (Homo sapiens, UniProt Q9UBN7); assay: HDAC6 inhibition, full IC50 measurement (Reaction Biology; fluorogenic p53 peptide RHKK(Ac)AMC); type: biochemical
# T2 construct: purchased Reaction Biology Corporation (assay run by the CRO)
# T2 sequence (Q9UBN7 1-1215): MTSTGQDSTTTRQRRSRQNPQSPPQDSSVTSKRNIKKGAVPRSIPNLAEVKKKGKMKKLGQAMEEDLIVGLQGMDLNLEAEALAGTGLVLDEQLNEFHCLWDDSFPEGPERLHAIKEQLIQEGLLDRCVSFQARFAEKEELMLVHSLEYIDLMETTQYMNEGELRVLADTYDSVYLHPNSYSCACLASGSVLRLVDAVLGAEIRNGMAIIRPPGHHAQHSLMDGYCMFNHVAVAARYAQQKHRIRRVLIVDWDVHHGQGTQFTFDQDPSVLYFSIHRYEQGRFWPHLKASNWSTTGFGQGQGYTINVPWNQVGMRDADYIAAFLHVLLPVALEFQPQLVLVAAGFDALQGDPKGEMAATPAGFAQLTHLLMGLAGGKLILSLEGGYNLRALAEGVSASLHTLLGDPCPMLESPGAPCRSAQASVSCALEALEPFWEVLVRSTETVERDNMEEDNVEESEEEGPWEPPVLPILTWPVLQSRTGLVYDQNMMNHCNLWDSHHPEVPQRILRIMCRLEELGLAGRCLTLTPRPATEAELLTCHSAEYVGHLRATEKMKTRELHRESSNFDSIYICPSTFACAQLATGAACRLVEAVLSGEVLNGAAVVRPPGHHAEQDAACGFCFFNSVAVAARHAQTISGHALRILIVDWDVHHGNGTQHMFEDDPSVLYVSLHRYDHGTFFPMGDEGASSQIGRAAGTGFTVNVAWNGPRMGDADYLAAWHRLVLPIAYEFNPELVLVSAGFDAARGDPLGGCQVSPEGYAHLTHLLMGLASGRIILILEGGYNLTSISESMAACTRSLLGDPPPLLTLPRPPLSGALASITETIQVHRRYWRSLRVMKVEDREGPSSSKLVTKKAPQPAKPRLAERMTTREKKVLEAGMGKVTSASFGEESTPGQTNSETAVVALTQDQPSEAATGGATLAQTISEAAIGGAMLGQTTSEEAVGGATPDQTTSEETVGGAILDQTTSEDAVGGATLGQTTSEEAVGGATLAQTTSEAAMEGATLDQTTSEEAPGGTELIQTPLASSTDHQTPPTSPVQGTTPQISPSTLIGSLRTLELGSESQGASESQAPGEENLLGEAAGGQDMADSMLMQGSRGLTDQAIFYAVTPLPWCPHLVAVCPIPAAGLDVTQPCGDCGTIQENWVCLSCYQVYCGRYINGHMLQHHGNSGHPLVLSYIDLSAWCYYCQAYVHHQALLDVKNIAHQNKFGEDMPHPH
# Experimental: as §1, §2
# T1 sequence (Q92769 whole entry): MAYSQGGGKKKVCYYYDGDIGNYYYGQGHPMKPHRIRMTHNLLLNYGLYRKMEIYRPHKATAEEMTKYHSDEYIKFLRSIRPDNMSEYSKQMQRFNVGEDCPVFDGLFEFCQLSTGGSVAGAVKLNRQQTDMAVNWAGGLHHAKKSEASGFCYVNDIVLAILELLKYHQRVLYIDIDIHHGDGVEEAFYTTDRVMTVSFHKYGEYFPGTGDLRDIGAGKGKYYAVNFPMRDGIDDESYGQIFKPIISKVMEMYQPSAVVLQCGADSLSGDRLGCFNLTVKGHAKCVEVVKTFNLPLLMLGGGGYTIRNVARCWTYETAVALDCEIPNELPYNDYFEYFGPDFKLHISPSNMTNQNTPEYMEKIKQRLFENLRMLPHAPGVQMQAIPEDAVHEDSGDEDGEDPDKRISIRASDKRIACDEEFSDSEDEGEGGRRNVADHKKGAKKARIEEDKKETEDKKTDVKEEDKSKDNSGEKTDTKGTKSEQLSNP
smiles,measurement,setting,value
"CCCC[C@H]1NC(=O)[C@H](CC(=O)O)NC(=O)[C@@H](CO)NC(=O)[C@@H](C)NC(=O)[C@H](CCCCN)NC(=O)[C@@H](CCCCN)NC(=O)[C@H](Cc2ccccc2)NC(=O)[C@H](CCCCCS)NC1=O [des4.3.1.2, SHA-Phe-dLys-Lys-dAla-dSer-Asp-dNle] (HELM PEPTIDE1{D.[CCCC[C@@H](N[*:1])C(=O)[*:2]].[O=C([C@H](CCCCCS)N[*:1])[*:2]].F.[dK].K.[dA].[dS]}$PEPTIDE1,PEPTIDE1,1:R1-8:R2$$$V2.0)",HDAC2 activity raw data (signal),"[1]; Conc. 1.00E-05 M, t1",1148842
same,HDAC2 activity raw data (signal),"[1]; Conc. 1.00E-05 M, t2",1124925
same,HDAC2 activity raw data (signal),"[1]; Conc. 1.11E-06 M, t1",1654730
same,HDAC2 activity raw data (signal),"[1]; Conc. 1.11E-06 M, t2",1704574
same,HDAC2 activity raw data (signal),"[1]; Conc. 1.23E-07 M, t1",1694685
same,HDAC2 activity raw data (signal),"[1]; Conc. 1.23E-07 M, t2",1708262
same,HDAC2 activity raw data (signal),"[1]; Conc. 1.37E-08 M, t1",1883329
same,HDAC2 activity raw data (signal),"[1]; Conc. 1.37E-08 M, t2",1685214
same,HDAC2 activity raw data (signal),"[1]; Conc. 1.52E-09 M, t1",1920222
same,HDAC2 activity raw data (signal),"[1]; Conc. 1.52E-09 M, t2",1770203
same,HDAC2 activity raw data (signal),"[1]; Conc. 3.33E-06 M, t1",1489645
same,HDAC2 activity raw data (signal),"[1]; Conc. 3.33E-06 M, t2",1397108
same,HDAC2 activity raw data (signal),"[1]; Conc. 3.70E-07 M, t1",1733657
same,HDAC2 activity raw data (signal),"[1]; Conc. 3.70E-07 M, t2",1639218
same,HDAC2 activity raw data (signal),"[1]; Conc. 4.12E-08 M, t1",1743081
same,HDAC2 activity raw data (signal),"[1]; Conc. 4.12E-08 M, t2",1732768
same,HDAC2 activity raw data (signal),"[1]; Conc. 4.57E-09 M, t1",1828637
same,HDAC2 activity raw data (signal),"[1]; Conc. 4.57E-09 M, t2",1698186
same,HDAC2 activity raw data (signal),"[1]; Conc. 5.08E-10 M, t1",1916889
same,HDAC2 activity raw data (signal),"[1]; Conc. 5.08E-10 M, t2",1862597
same,6-Selectivity: fold potency for HDAC6 over HDAC2,[2],> 100 fold
same,HDAC6 activity raw data (signal),"[2]; Conc. 1.00E-05 M, t1",342990
same,HDAC6 activity raw data (signal),"[2]; Conc. 1.00E-05 M, t2",304678
same,HDAC6 activity raw data (signal),"[2]; Conc. 1.11E-06 M, t1",1091316
same,HDAC6 activity raw data (signal),"[2]; Conc. 1.11E-06 M, t2",1078978
same,HDAC6 activity raw data (signal),"[2]; Conc. 1.23E-07 M, t1",1593999
same,HDAC6 activity raw data (signal),"[2]; Conc. 1.23E-07 M, t2",1556041
same,HDAC6 activity raw data (signal),"[2]; Conc. 1.37E-08 M, t1",1690122
same,HDAC6 activity raw data (signal),"[2]; Conc. 1.37E-08 M, t2",1641196
same,HDAC6 activity raw data (signal),"[2]; Conc. 1.52E-09 M, t1",1700998
same,HDAC6 activity raw data (signal),"[2]; Conc. 1.52E-09 M, t2",1770848
same,HDAC6 activity raw data (signal),"[2]; Conc. 3.33E-06 M, t1",689811
same,HDAC6 activity raw data (signal),"[2]; Conc. 3.33E-06 M, t2",662211
same,HDAC6 activity raw data (signal),"[2]; Conc. 3.70E-07 M, t1",1440305
same,HDAC6 activity raw data (signal),"[2]; Conc. 3.70E-07 M, t2",1367836
same,HDAC6 activity raw data (signal),"[2]; Conc. 4.12E-08 M, t1",1630143
same,HDAC6 activity raw data (signal),"[2]; Conc. 4.12E-08 M, t2",1649164
same,HDAC6 activity raw data (signal),"[2]; Conc. 4.57E-09 M, t1",1710532
same,HDAC6 activity raw data (signal),"[2]; Conc. 4.57E-09 M, t2",1671153
same,HDAC6 activity raw data (signal),"[2]; Conc. 5.08E-10 M, t1",1797804
same,HDAC6 activity raw data (signal),"[2]; Conc. 5.08E-10 M, t2",1739375
